The results in this text go back to ChEMBL document CHEMBL3091290, “2-(2-Phenylmorpholin-4-yl)pyrimidin-4(3H)-ones; a new class of potent, selective and orally active glycogen synthase kinase-3β inhibitors” (Bioorg Med Chem Lett, 2013).

Data set [1] concerns the target Glycogen synthase kinase-3 beta (Homo sapiens, UniProt P49841). Briefly: Inhibition of human recombinant GSK-3beta using prephosphorylated GS1 peptide and [gamma-32P]ATP as substrate after 1 hr by liquid scintillation spectrometry.
For data set [2], the target named is T1, Cytochrome P450 1A2 (Homo sapiens, UniProt P05177).
T1 sequence (P05177 whole entry): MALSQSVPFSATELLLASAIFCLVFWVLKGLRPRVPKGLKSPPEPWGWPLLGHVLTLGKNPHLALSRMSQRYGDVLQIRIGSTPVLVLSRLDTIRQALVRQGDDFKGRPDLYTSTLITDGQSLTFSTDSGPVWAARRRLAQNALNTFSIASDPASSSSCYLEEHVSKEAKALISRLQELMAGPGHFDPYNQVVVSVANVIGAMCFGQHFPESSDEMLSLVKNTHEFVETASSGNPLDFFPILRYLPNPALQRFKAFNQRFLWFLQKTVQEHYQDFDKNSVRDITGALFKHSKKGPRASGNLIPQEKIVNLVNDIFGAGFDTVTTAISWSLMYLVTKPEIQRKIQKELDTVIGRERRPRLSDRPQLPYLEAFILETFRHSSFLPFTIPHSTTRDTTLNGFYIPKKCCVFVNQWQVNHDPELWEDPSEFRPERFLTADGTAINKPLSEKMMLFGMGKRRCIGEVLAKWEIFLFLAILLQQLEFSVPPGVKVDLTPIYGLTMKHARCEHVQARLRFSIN
Briefly: Inhibition of recombinant human CYP1A2. It is filed as ADME.

The test system of data set [3] is Liver microsome. Briefly: Intrinsic clearance in human liver microsomes. The format is ADME. A general note: Liver microsomes are vesicles of endoplasmic reticulum, rich in cytochrome P450 enzymes.
Data set [4] deals with Cytochrome P450 2D6 (Homo sapiens, UniProt P10635). As to the kind of experiment: Inhibition of recombinant human CYP2D6. The format is ADME.
Sequence of Cytochrome P450 2D6 (P10635 whole entry): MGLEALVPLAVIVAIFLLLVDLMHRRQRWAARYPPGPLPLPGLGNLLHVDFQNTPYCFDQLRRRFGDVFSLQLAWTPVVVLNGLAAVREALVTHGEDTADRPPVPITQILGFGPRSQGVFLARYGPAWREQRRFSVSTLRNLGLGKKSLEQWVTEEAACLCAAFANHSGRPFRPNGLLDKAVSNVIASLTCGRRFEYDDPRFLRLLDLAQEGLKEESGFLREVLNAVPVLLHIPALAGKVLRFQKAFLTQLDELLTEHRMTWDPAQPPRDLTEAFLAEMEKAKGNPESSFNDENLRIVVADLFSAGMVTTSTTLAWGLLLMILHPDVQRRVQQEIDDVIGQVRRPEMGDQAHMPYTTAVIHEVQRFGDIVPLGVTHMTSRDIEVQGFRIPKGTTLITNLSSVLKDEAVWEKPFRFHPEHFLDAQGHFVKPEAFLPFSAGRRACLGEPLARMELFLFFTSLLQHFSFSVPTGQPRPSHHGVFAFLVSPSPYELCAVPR
For data set [5], the target named is Cytochrome P450 3A4 (Homo sapiens, UniProt P08684). As to the kind of experiment: Inhibition of recombinant human CYP3A4. It is filed as ADME.
Sequence of Cytochrome P450 3A4 (P08684 whole entry): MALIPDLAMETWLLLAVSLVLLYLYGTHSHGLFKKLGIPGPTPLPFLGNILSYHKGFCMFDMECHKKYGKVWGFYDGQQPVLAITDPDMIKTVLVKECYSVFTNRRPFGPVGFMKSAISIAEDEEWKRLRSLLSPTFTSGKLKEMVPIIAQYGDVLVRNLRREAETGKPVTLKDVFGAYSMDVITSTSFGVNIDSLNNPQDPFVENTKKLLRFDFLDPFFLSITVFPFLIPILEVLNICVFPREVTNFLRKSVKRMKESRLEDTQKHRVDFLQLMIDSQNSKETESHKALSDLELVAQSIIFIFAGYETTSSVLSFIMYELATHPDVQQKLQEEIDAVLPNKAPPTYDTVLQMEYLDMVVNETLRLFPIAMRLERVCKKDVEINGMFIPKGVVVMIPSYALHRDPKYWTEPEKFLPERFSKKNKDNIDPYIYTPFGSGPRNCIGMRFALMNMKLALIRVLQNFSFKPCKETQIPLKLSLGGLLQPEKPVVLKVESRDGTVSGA
In data set [6] the test system is Liver microsome. As to the kind of experiment: Clearance in rat liver microsomes. It is filed as ADME.
The nature of data set [7]: Permeability of the compound across human Caco2 cells. The format is ADME, cell-based. The note with it: Caco-2, read-out: permeability. (In general: Caco-2 cells form a polarised layer with tight junctions and transporters.)
A short description of data set [8]: Oral bioavailability in Sprague-Dawley rat at 10 mg/kg. It is filed as ADME, organism-based. Particulars: in vivo.
A short description of data set [9]: AUC (0 to infinity) in Sprague-Dawley rat at 10 mg/kg, po. It is filed as ADME, organism-based. Set-up: time infinity, dose 10 mg/kg, route oral. Particulars: plasma.
Data set [10] can be described thus: Ratio of drug level in brain (0 to infinity) to plasma (0 to infinity) in ICR mouse at 1 mg/kg, po. It is filed as ADME, organism-based. Set-up: dose 1 mg/kg, route oral. The note with it: read-out: BPR.
The subject of data set [11] is MDR1 (P-glycoprotein). Briefly: Permeability efflux ratio in MDR1 expressing pig LLC cells. The note with it: LLC-PK1. The format is ADME, cell-based, Sus scrofa.
Data set [12] deals with Rattus norvegicus. Briefly: Cmax in Sprague-Dawley rat at 10 mg/kg, po. The format is ADME, organism-based. Set-up: dose 10 mg/kg, route oral. Particulars: in vivo.
Data set [13] can be described thus: Total clearance in Sprague-Dawley rat at 1 mg/kg, iv. It is filed as ADME, organism-based. Set-up: dose 1 mg/kg, route intravenous. The note with it: in vivo.
For data set [14], the target named is Casein kinase I isoform alpha (Homo sapiens, UniProt P48729). As to the kind of experiment: Inhibition of CK1 (unknown origin).
Sequence of Casein kinase I isoform alpha (P48729 whole entry, canonical isoform): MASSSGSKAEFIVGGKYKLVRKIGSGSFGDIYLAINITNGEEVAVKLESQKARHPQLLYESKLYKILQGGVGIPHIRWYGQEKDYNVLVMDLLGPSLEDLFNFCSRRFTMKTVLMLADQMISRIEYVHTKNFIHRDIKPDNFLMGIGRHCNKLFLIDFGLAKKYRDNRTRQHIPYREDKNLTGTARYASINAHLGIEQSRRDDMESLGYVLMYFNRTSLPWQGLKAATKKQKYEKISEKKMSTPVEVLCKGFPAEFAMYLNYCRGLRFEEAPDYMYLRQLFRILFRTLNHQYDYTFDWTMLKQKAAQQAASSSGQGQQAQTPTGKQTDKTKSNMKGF
Data set [15] is described as follows: Volume of distribution at steady state in Sprague-Dawley rat at 1 mg/kg, iv. The format is ADME, organism-based. Details: dose 1 mg/kg, route intravenous. Particulars: in vivo, read-out: Vdss.
A short description of data set [16]: Half life in Sprague-Dawley rat at 10 mg/kg, po. It is filed as ADME, organism-based. Details: dose 10 mg/kg, route oral. The note with it: in vivo.

As usually defined, the IC50 is the concentration that gives 50% inhibition. One may read the bioavailability as the share of a dose that reaches the circulation, judged against a reference dose that is usually intravenous. A lower bioavailability goes with poor availability. Broadly, the AUC(0-inf) is total exposure, with the tail of the curve extrapolated. The low end stands for less exposure, the high end for more exposure. As usually defined, the efflux ratio is the permeability from basolateral to apical divided by that in the opposite direction, in the common usage. As usually defined, the Cmax is the peak of the concentration-time curve. As a reminder, the clearance is the rate of elimination divided by the concentration. What is called half-life is the time needed for the level to fall by half in the phase considered.

Sequence of Glycogen synthase kinase-3 beta (P49841 whole entry): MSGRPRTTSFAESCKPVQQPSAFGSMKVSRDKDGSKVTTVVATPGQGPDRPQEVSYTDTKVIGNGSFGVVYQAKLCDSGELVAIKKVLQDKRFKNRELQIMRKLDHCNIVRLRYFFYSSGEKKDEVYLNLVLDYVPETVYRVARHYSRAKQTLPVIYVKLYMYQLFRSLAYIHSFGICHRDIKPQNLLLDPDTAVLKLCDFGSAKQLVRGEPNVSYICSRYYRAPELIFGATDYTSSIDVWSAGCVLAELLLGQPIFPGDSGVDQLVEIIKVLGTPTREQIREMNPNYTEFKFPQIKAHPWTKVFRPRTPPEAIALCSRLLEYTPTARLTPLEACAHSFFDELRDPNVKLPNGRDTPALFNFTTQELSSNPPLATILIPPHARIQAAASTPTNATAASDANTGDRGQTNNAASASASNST

For the compound `Cn1c(N2CCO[C@@H](c3ccc(F)cc3)C2)nc(-c2ccncc2Cl)cc1=O`, in data set [1], the IC50 worked out at 0.43 µM.
In the case of `COc1ccc([C@H]2CN(c3nc(-c4ccncn4)cc(=O)n3C)CCO2)cc1`, the IC50 in data set [2] was greater than 50 µM; in data set [1] it was 0.0029 µM; in data set [4] it was 6.9 µM. The same compound came in with an Intrinsic clearance in [3] of 110 µL/min/mg.
As to `Cn1c(N2CCO[C@@H](c3ccc(F)cc3)C2)nc(-c2ccnc(Cl)c2)cc1=O`, the IC50 in data set [1] is 0.903 µM.
Consider `COc1cccc(OC)c1[C@H]1CN(c2nc(-c3ccncn3)cc(=O)n2C)CCO1`, for which the figures for the IC50 in data set [2], in data set [1] and in data set [4] were greater than 50 µM, 0.00023 µM and greater than 50 µM, respectively. Also, the Intrinsic clearance in data set [3] was 200 µL/min/mg.
Consider `Cn1c(NCC(=O)c2ccccc2)nc(-c2ccncc2)cc1=O`, for which the half-maximal inhibitory concentration (IC50) in data set [5] and in [4] was greater than 50 µM each time.
As to `Cn1c(N2CCOC(c3ccccc3)C2)nc(-c2ccncc2)cc1=O` (racemic), the IC50 in [2] was 23.1 µM; in data set [1], 0.051 µM; in [5], greater than 50 µM; in [4], 47.4 µM. Moreover, the CLH in data set [6] is 155 µL/min/mg.
For `Cn1c(N2CCO[C@@H](c3ccc(F)cc3)C2)nc(-c2ccncn2)cc1=O`, in data set [7], the Papp came out at 58.3 ×10⁻⁶ cm/s. Moreover, the bioavailability in data set [8] came to 37%. In [9], this compound registered an area under the curve AUC(0-inf) of 1300 ng·h/mL. In addition, the Kp in data set [10] turned out to be 3.1. Also, the efflux ratio in data set [11] was determined as 1. Besides, the IC50 in data set [2] is 29.4 µM; in data set [1], 0.012 µM; in [14], 1.5 µM; in data set [5], greater than 50 µM; in data set [4] it was 39.7 µM. For the same compound, the Cmax in [12] is 221 ng/mL. The compound also showed a clearance in [13] of 48.3 mL/min/kg. The Vd in data set [15] worked out at 2.4 L/kg. The compound further showed a half-life in data set [16] of 1.7 h. Also, in data set [3], the Intrinsic clearance stood at 60 µL/min/mg.
Take `COc1ccccc1[C@H]1CN(c2nc(-c3ccncn3)cc(=O)n2C)CCO1`: the IC50 in data set [2] stood at 15.7 µM; in data set [1], 0.00087 µM; in data set [4] it was 16 µM. In data set [3], this compound yielded an Intrinsic clearance of 190 µL/min/mg.
Regarding `Cn1c(N2CCOC(c3ccc(F)cc3)C2)nc(-c2ccncc2)cc1=O` (racemic), the IC50 in data set [2] was 23.9 µM; in data set [1], 0.027 µM; in [5], greater than 50 µM; in data set [4], 35.8 µM. In addition, the CLH in [6] came out at 104 µL/min/mg.
Regarding `COc1cccc([C@H]2CN(c3nc(-c4ccncn4)cc(=O)n3C)CCO2)c1`, the IC50 is greater than 50 µM in data set [2], 0.0046 µM in data set [1], greater than 50 µM in data set [5] and 26.6 µM in data set [4]. The same compound returned an Intrinsic clearance in data set [3] of 130 µL/min/mg.
For `Cn1c(N2CCO[C@@H](c3c(F)cccc3Cl)C2)nc(-c2ccncn2)cc1=O`, the IC50 stood at 19.5 µM in [2], 0.00064 µM in [1] and 32.3 µM in [4]. In data set [3], the Intrinsic clearance turned out to be 70 µL/min/mg.
As for `Cn1c(N2CCO[C@@H](c3ccc(F)cc3)C2)nc(-c2ccncc2F)cc1=O`, the IC50 is 5.5 µM in [2], 0.0074 µM in [1], greater than 50 µM in data set [5] and 22.1 µM in [4].
With `Cn1c(N2CCO[C@@H](c3ccc(C#N)cc3F)C2)nc(-c2ccncn2)cc1=O`, the IC50 in [2] is greater than 50 µM; in data set [1], 0.0065 µM; in [4], 26.7 µM. The same compound yielded an Intrinsic clearance in [3] of 30 µL/min/mg.
The corresponding values for `COc1cc(F)ccc1[C@H]1CN(c2nc(-c3ccncn3)cc(=O)n2C)CCO1` are 16.5 µM, 0.00047 µM, 18 µM and 180 µL/min/mg.
Take `COc1cnccc1-c1cc(=O)n(C)c(N2CCO[C@@H](c3ccc(F)cc3)C2)n1`: in data set [1], the IC50 is 0.791 µM.
Turning to `Cn1c(N2CCO[C@@H](c3ccccc3F)C2)nc(-c2ccncn2)cc1=O`, the half-maximal inhibitory concentration (IC50) was 23.3 µM in data set [2], 0.0032 µM in data set [1] and 32.4 µM in [4]. This compound also came in with an Intrinsic clearance in data set [3] of 100 µL/min/mg.
Consider `Cn1c(N2CCO[C@@H](c3ccc(C#N)cc3)C2)nc(-c2ccncn2)cc1=O`, for which the IC50 in data set [2] was greater than 50 µM; in data set [1], 0.013 µM; in data set [4], 4.5 µM. This compound also had an Intrinsic clearance in [3] of 30 µL/min/mg.
As for `Cc1cnccc1-c1cc(=O)n(C)c(N2CCO[C@@H](c3ccc(F)cc3)C2)n1`, the IC50 in [1] came to 2.47 µM.
As for `Cn1c(N2CCO[C@@H](c3ccc(F)cc3)C2)nc(-c2ccncc2)cc1=O`, the concentration for half-maximal inhibition (IC50) in data set [2] was 17.1 µM; in [1], 0.022 µM; in data set [5], greater than 50 µM; in [4], 44.2 µM.
For `Cn1c(N2CCO[C@H](c3ccc(F)cc3)C2)nc(-c2ccncc2)cc1=O`, the IC50 in data set [1] came to 0.077 µM.
